Read-outs that look alike come from different tables or passages of the source.
How the values were obtained:
[1] = biological target: T1, clot-bound thrombin (Homo sapiens, UniProt P00734); experiment: inhibition of plasma clot-bound thrombin (Methods M1, M3); assay type: biochemical; settings: clot from platelet-rich human plasma; Tos-Gly-Pro-Arg-pNA substrate
T1 construct: from tissue; host or cells: clot of recalcified human platelet-rich plasma
Protocol: (§1) Plasma-clot was obtained by recalcificating platelet-rich human plasma, and fibrin gel by clotting human fibrinogen with human thrombin. For the activity measures of fXa and thrombin Z-D-Arg-Gly-Arg-pNA or Tos-Gly-Pro-Arg-pNA substrates were used in agreement with Methods M1-M3.
Preparation of Clots from Human Plasma
a) Platelet-rich plasma is prepared by centrifuging a 9:1 mixture of human blood and 3.8% sodium citrate solution for 5 min. at 240×g.
b) 200 μl platelet-rich plasma and 80 μl 40 mM CaCl2 solution are allowed to stand at room temperature for 1 hour. The thus-formed clot is washed with 6×2 ml of 0.9% NaCl solution with gentle stirring to remove the residual enzymes (thrombin and factor Xa). The washing medium is assayed for thrombin-like activity as follows:
c) To 400 μl of washing medium 100 μl of 1 mM Tos-Gly-Pro-Arg-pNA substrate solution is added, the mixture is incubated for 30 min at 37° C., then the reaction is stopped with 100 μl of 50% acetic acid. From this mixture 150 μl aliquots are applied onto a 96-well microtitre plate and the extinction coefficients are measured at 405 nm (ELISA READER SLT Laborinstrument GmbH, Austria). In case of efficient washing the extinction coefficient is smaller than 5% of that of the control.
Determination of the Inhibition of Clot-bound Thrombin
a) Solutions are made from the peptide inhibitors according to Method M2/a.
b) After draining off the washing medium the clots (Method M1) are mixed with 400 μl of peptide solution (3 parallel samples with each concentration), then the samples are incubated for 5 min. at 37° C. together with a separate 400 μl buffer serving as control. Then 100 μl […] 1 mM Tos-Gly-Pro-Arg-pNA substrate solution is added and the incubation continued for further 30 min. at 37° C. The experiment is continued according to M2/c.

[2] = biological target: T2, fibrin gel-bound thrombin (Homo sapiens, UniProt P00734); experiment: inhibition of fibrin gel-bound thrombin (Methods M4, M5); assay type: biochemical; settings: human fibrinogen clotted with human thrombin; Tos-Gly-Pro-Arg-pNA substrate
T2 construct: purchased SIGMA
Protocol: as §1
Preparation of Fibrin Clots
a) To each reaction vessel 200 μl of human fibrinogen (SIGMA), 25 μl of 25 NIH/E/ml human thrombin (SIGMA) and 40 μl of 100 mM CaCl2 solution is placed and the mixtures are allowed to stand for 1 hour at 20-22° C. The fibrin clots are washed with isotonic NaCl-solution (3×2 ml) under gentle stirring to remove traces of thrombin and sedimented for 5 min. The effectiveness of the washing can be checked by the method M1/c.
Determination of Inhibition of Fibrin-clot Bound Thrombin
a) 0.1-1.0-10 and 100 μg/ml solutions are made from the peptide inhibitors with Hepes/NaCl buffer (0.001 M Hepes and 0.1 M NaCl, pH=7.4).
b) Measurements are continued according to M3/b.

[3] = tested on: New Zealand white rabbits; experiment: ex vivo whole blood clotting time (WBCT) in rabbits after p.o. dosing; design: species or system rabbit; settings: p.o. 5 mg/kg
Protocol: (§2) The anticoagulant and platelet aggregation inhibiting effect of the compounds of general formula (I) was studied in New Zealand white rabbits ex vivo according to D. Bagdy et al. [Thromb. Haemost. 67, 357 (1992)]. The compounds were dissolved in buffered isotonic saline solution and administered i.v. (0,04-5.0 mg/kg) or by infusion (0.25-5.0 mg/kg/h) or subcutaneously (0.5-6.0 mg/kg) or p.o. (2.5-20 mg/kg). The effect of the compounds was detectable already within 30 minutes following p.o. administration, peak values were attained after 60-180 minutes and the therapeutic level was maintained dose-dependently for 3→6 hours.
(§3) The in vivo effect of ethoxycarbonyl-3-cyclobutyl-D-alanyl-L-prolyl-L-arginine aldehyde (1) is presented in detail in Tables 6 and 7. The corresponding values of C1 are listed as controls. The compound was administered p.o. in doses of 5 mg/kg. The blood samples drawn from the caudal vein in every 30-60 minutes were analysed. The whole blood clotting time (WBCT) and the inhibition of thrombin-induced blood platelet aggregation (PAI) were determined. The activated partial thromboplastin time (APTT) and the thrombin time (TT) in the citrate plasma obtained from the blood sample were also measured. The APTT and TT values are compiled in Table 6 and the WBCT and PAI values in Table 7.

[4] = tested on: thrombin-induced blood platelet aggregation; experiment: ex vivo inhibition of thrombin-induced blood platelet aggregation (PAI) in rabbits after p.o. dosing; design: species or system rabbit; settings: Oryctolagus cuniculus, Platelet, po, p.o. 5 mg/kg, read-out: PAI (%), percentual inhibition of platelet aggregation
Protocol: as §2, §3

CCOC(=O)N[C@H](CC1CCC1)C(=O)N1CCC[C@H]1C(=O)N[C@H](C=O)CCCNC(=N)N [Example 1, Ethoxycarbonyl-3-cyclobutyl-D-alanyl-L-prolyl-L-arginine aldehyde]
IC50 [1]: 0.39 µM
IC50 [2]: 0.32 µM
WBCT relative clotting time ([3]; 0 min): 1.0
WBCT relative clotting time ([3]; 30 min): 1.52 ± 0.22
WBCT relative clotting time ([3]; 45 min): 1.58 ± 0.17
WBCT relative clotting time ([3]; 60 min): 1.88 ± 0.45
WBCT relative clotting time ([3]; 90 min): 1.73 ± 0.33
WBCT relative clotting time ([3]; 120 min): 1.98 ± 0.30
WBCT relative clotting time ([3]; 180 min): 1.43 ± 0.13
WBCT relative clotting time ([3]; 240 min): 1.12 ± 0.24
WBCT relative clotting time ([3]; 300 min): 1.18 ± 0.08
inhibition at 5 mg/kg ([4]; 0 h, 0 min): 1%
inhibition at 5 mg/kg ([4]; 0.5 h, 30 min): 71.3 ± 16.6%
inhibition at 5 mg/kg ([4]; 0.75 h, 45 min): 55.8 ± 17.4%
inhibition at 5 mg/kg ([4]; 1 h, 60 min): 63.8 ± 21.2%
inhibition at 5 mg/kg ([4]; 1.5 h, 90 min): 85.6 ± 10%
inhibition at 5 mg/kg ([4]; 2 h, 120 min): 73.6 ± 19.1%
inhibition at 5 mg/kg ([4]; 3 h, 180 min): 81.8 ± 11.6%
inhibition at 5 mg/kg ([4]; 4 h, 240 min): 59.4 ± 19.1%
inhibition at 5 mg/kg ([4]; 5 h, 300 min): 75.8 ± 11.8%

From US6235707A, “Anticoagulant peptidyl-arginine aldehyde derivatives” (Gyogyszerkutato Intezet Kft., priority 1996, dated 2001)
